Literature values as cited in article PMC11246588, “New 1,2,4-oxadiazole derivatives as potential multifunctional agents for the treatment of Alzheimer’s disease: design, synthesis, and biological evaluation” (BMC Chemistry, 2024).

How the values were obtained:
Parameters in all cases: method as in PMID 18550375, PMID 33017743, PMID 36223681, PMID 34752955, PMID 26077890
Settings in all cases: Fig. 1; ref [50]–[55]; cited from earlier work
BChE = test system: BChE
Aβ self-aggregation = test system: Aβ self-aggregation
hMAO B = test system: hMAO B

Row | SMILES | IC50 (BChE) | Inhibited Aβ self-aggregation (Aβ self-aggregation) | IC50 (hMAO B)
1 | O=C(CNc1ccc(F)cc1)Nc1ccc(-c2nc(-c3ccnc(Nc4ccc(OC(F)(F)F)cc4)c3)no2)cc1 [IV] | 1280 nM | 51.91% | –
2 | COc1cc(-c2ccc(-c3nc(-c4ccc5[nH]ncc5c4)no3)cc2)cc(OC)c1OC [VI] | – | – | 52 nM
